Settings: Liquid, Vibrating tube method

CCCCCCO [hexan-1-ol]
mass density [kg/m3]
Settings | 278.15 K | 288.15 K | 298.15 K | 308.15 K | 318.15 K | 328.15 K | 338.15 K | 348.15 K | 358.15 K
100 kPa | 828.9 | 822.1 | 814.9 | 807.8 | 800.5 | 793 | 785.4 | 777.6 | 769.4
1000 kPa | 829.5 | 822.7 | 815.6 | 808.4 | 801.2 | 793.7 | 786.2 | 778.4 | 770
5000 kPa | 832 | 825.3 | 818.4 | 811.4 | 804.3 | 797 | 789.6 | 782 | 774.2
10000 kPa | 835 | 828.5 | 821.7 | 814.8 | 807.9 | 800.8 | 793.6 | 786.2 | 778.6
15000 kPa | 838 | 831.6 | 824.9 | 818.2 | 811.4 | 804.4 | 797.4 | 790.2 | 782.8
20000 kPa | 840.8 | 834.6 | 828 | 821.4 | 814.7 | 807.9 | 801 | 794.1 | 786.9
25000 kPa | 843.6 | 837.4 | 830.9 | 824.5 | 817.9 | 811.2 | 804.5 | 797.6 | 790.7
30000 kPa | 846.3 | 840.2 | 833.8 | 827.5 | 821 | 814.4 | 807.9 | 801.2 | 794.3
35000 kPa | 848.9 | 842.9 | 836.6 | 830.3 | 824 | 817.6 | 811.1 | 804.6 | 797.9
40000 kPa | 851.4 | 845.5 | 839.4 | 833.2 | 826.9 | 820.6 | 814.2 | 807.8 | 801.3
45000 kPa | 853.9 | 848 | 842 | 835.9 | 829.7 | 823.5 | 817.3 | 811 | 804.6
50000 kPa | 856.3 | 850.5 | 844.6 | 838.5 | 832.4 | 826.4 | 820.2 | 814 | 807.7
55000 kPa | 858.7 | 853 | 847.1 | 841.1 | 835.1 | 829.1 | 823.1 | 817 | 810.8
60000 kPa | 860.9 | 855.4 | 849.6 | 843.5 | 837.7 | 831.6 | 825.7 | 819.7 | 813.5

COC(=O)c1ccccc1 [methyl benzoate]
mass density [kg/m3]
Settings | 278.15 K | 288.15 K | 298.15 K | 308.15 K | 318.15 K | 328.15 K | 338.15 K | 348.15 K | 358.15 K
100 kPa | 1101.5 | 1092.1 | 1082.7 | 1073 | 1063.3 | 1053.6 | 1044.1 | 1034.4 | 1024.9
1000 kPa | 1102.1 | 1092.6 | 1083.2 | 1073.6 | 1063.8 | 1054.3 | 1044.8 | 1035.1 | 1025.6
5000 kPa | 1104.4 | 1095 | 1085.8 | 1076.2 | 1066.7 | 1057.2 | 1048 | 1038.4 | 1029.1
10000 kPa | 1107.2 | 1097.9 | 1089 | 1079.5 | 1070.1 | 1060.8 | 1051.7 | 1042.4 | 1033.3
15000 kPa | 1109.9 | 1100.8 | 1091.8 | 1082.6 | 1073.4 | 1064.3 | 1055.3 | 1046.2 | 1037.3
20000 kPa | 1112.6 | 1103.6 | 1094.8 | 1085.7 | 1076.6 | 1067.6 | 1058.8 | 1049.8 | 1041.2
25000 kPa | 1115.2 | 1106.3 | 1097.6 | 1088.6 | 1079.7 | 1070.9 | 1062.2 | 1053.4 | 1044.9
30000 kPa | 1117.7 | 1109 | 1100.4 | 1091.5 | 1082.8 | 1074 | 1065.5 | 1056.9 | 1048.5
35000 kPa | 1120.2 | 1111.6 | 1103.1 | 1094.3 | 1085.7 | 1077.1 | 1068.8 | 1060.3 | 1052
40000 kPa | 1122.7 | 1114.1 | 1105.7 | 1097.1 | 1088.6 | 1080.1 | 1071.9 | 1063.5 | 1055.4
45000 kPa | 1125.1 | 1116.6 | 1108.3 | 1099.8 | 1091.4 | 1083 | 1074.9 | 1066.7 | 1058.7
50000 kPa | 1127.4 | 1119.1 | 1110.9 | 1102.4 | 1094.1 | 1085.9 | 1077.9 | 1069.8 | 1061.9
55000 kPa | 1129.7 | 1121.4 | 1113.4 | 1105 | 1096.8 | 1088.7 | 1080.8 | 1072.8 | 1065.1
60000 kPa | 1131.8 | 1123.6 | 1115.6 | 1107.4 | 1099.3 | 1091.2 | 1083.5 | 1075.5 | 1067.9

From the NIST ThermoML archive (doi:10.1016/j.jct.2011.02.008)
